Structures are written as SMILES.

One experiment addresses T1, hKv7.2/hKv7.3 (Homo sapiens, UniProt O43525+O43526).
T1 construct: P2A remnant (self-cleaving peptide between Kv7.3 and Kv7.2) (C); expressed in transfected cells
Briefly: Thallium influx assay for potassium channel activation. In kind it is cell-based. To be noted: HEK-hKv7.2/hKv7.3 cells; FLIPR Potassium Assay kit; AUC readout normalized to a reference compound. Here is the method:
(§1) A synthesized cDNA fragment encoding human Kv7.3 and human Kv7.2 separated by a P2A sequence was inserted into the pcDNA5/FRT/TO vector using the BamHI and XhoI restriction sites. The construct was then transfected into HEK Flp-In 293 cells using Lipofectamine2000. The transfected cells were grown for 48 hours in DMEM containing 10% (v/v) FBS and 1% PenStrep and subsequently maintained under selection in DMEM containing 10% (v/v) FBS, 1% PenStrep and 200 ug/mL Hygromycin B at 37° C. in a humidified atmosphere of 5% CO2.
The thallium influx assay for potassium channel activation was performed analogously to a published procedure (C. D. Weaver, et al., J Biomol Screen 2004, 9, 671-677) using the FLIPR Potassium Assay kit (Molecular Devices). HEK-hKv7.2/hKv7.3 cells were plated onto 96-well, black-walled, clear-bottomed culture plates (Corning, Acton, Mass., USA) at a density of 80,000 cells/well (100 μl/well) if the cells were assayed the following day, or 40,000 cells/well (100 μl/well) if the cells were assayed two days after seeding.
On the assay day, the medium was removed after which 50 uL/well of test compound diluted to 2× final concentration in HBSS containing 20 mM HEPES, and 50 uL/well of 2× dye load buffer were added. The cells were then incubated for 60 min at room temperature in the dark. Chloride-free stimulation buffer containing Tl^+ and K^+ at 5× final concentration (5× concentration: 5 mM in both cases) and test compound at 1× final concentration, were prepared during the incubation. The cells were then assayed in a FDSS7000EX Functional Drug Screening System (Hamamatsu). Following 60 sec of baseline fluorescence signal reading at 0.1 Hz, and 10 sec at 1 Hz, 25 uL/well of stimulation buffer were added and the fluorescence continuously measured for 50 sec at 1 Hz followed, by 4 min at 0.1 Hz. Compound effect was quantified using AUC as readout and normalized to a reference compound, which was included on each plate.
`C[C@H](NC(=O)CC(O)C(C)(C)C)c1cccc(OCC(F)(F)F)c1` (single isomer, unassigned) [Example 2a] had an EC50 of 460 nM. The same measure, in the same setting: to `C[C@H](NC(=O)CC(O)C(C)(C)C)c1cccc(OCC(F)(F)F)c1` (single isomer, unassigned) [Example 2b] belongs 1800 nM; to `C[C@H](NC(=O)CC(O)C(C)(C)C)c1cccc(OC(F)F)c1` (single isomer, unassigned) [Example 3a], 11000 nM. Same read-out and setting: under `C[C@H](NC(=O)CC(O)C(C)(C)C)c1cccc(OC(F)F)c1` (single isomer, unassigned) [Example 3b] stands 1500 nM; under `C[C@H](NC(=O)CC(O)C(C)(C)C)c1cccc(C(F)(F)F)c1` (single isomer, unassigned) [Example 4a], 11000 nM; under `C[C@H](NC(=O)CC(O)C(C)(C)C)c1cccc(C(F)(F)F)c1` (single isomer, unassigned) [Example 4b], 1200 nM. In turn, `CC(C)C(O)(CC(=O)N[C@@H](C)c1cccc(OCC(F)(F)F)c1)C(F)(F)F` (single isomer, unassigned) [Example 7a] registered an EC50 of 220 nM.

Consider `CC(C)C(O)(CC(=O)N[C@@H](C)c1cccc(OCC(F)(F)F)c1)C(F)(F)F` (single isomer, unassigned) [Example 7b], for which the EC50 came to 1500 nM.

As for `CC[C@H](NC(=O)CC(O)C(C)(C)C)c1cccc(OC(F)(F)F)c1` (single isomer, unassigned) [Example 8a], the EC50 came out at 430 nM. The same measure, in the same setting: under `CC[C@H](NC(=O)CC(O)C(C)(C)C)c1cccc(OC(F)(F)F)c1` (single isomer, unassigned) [Example 8b] stands 3000 nM; under `C[C@H](NC(=O)CC(C)(O)C(F)(F)C(F)F)c1cccc(OC(F)(F)F)c1` (single isomer, unassigned) [Example 10b], 1300 nM; under `C[C@H](NC(=O)CC(O)C1CC(F)(F)C1)c1cccc(OC(F)(F)F)c1` (single isomer, unassigned) [Example 11b], 4500 nM. Still for that read-out and setting: under `CC(C)C(O)CC(=O)N[C@@H](C)c1cccc(OCC(F)(F)F)c1` (single isomer, unassigned) [Example 12a] stands 1600 nM; under `CC(C)C(O)CC(=O)N[C@@H](C)c1cccc(OCC(F)(F)F)c1` (single isomer, unassigned) [Example 12b], 5900 nM. Same read-out and setting: to `C[C@H](NC(=O)CC(C)(O)CC(F)(F)F)c1cccc(OC(F)(F)F)c1` (single isomer, unassigned) [Example 13b] belongs 2900 nM; to `C[C@H](NC(=O)CC(O)C1(C(F)F)CC1)c1cccc(OC(F)(F)F)c1` (single isomer, unassigned) [Example 14a], 2000 nM.

`C[C@H](NC(=O)C[C@@H](O)C1(C(F)F)CC1)c1cccc(OC(F)(F)F)c1` (single isomer, unassigned) [Example 14b] came in with a half-maximal effective concentration (EC50) of 6600 nM. Same read-out and setting: under `C[C@H](NC(=O)C[C@@](C)(O)C1(F)CC1)c1cccc(OC(F)(F)F)c1` (single isomer, unassigned) [Example 15a] stands 2100 nM; under `C[C@H](NC(=O)CC(C)(O)C1(F)CC1)c1cccc(OC(F)(F)F)c1` (single isomer, unassigned) [Example 15b], 11000 nM; under `C[C@H](NC(=O)CC(O)C1(C(F)(F)F)CC1)c1cccc(OC(F)(F)F)c1` (single isomer, unassigned) [Example 16a], 3000 nM. In turn, `C[C@H](NC(=O)CC(O)C1(C(F)(F)F)CC1)c1cccc(OC(F)(F)F)c1` (single isomer, unassigned) [Example 16b] displayed an EC50 of 10000 nM. Compared with the last compound, the EC50 is about 3.3-fold higher. `C[C@H](NC(=O)CC(C)(O)C1CC1)c1cccc(OCC(F)(F)F)c1` (single isomer, unassigned) [Example 18a] gave a concentration giving a half-maximal response (EC50) of 1300 nM. In turn, `C[C@H](NC(=O)CC(C)(O)C1CC1)c1cccc(OCC(F)(F)F)c1` (single isomer, unassigned) [Example 18b] returned an EC50 of 7100 nM.

With `C[C@H](NC(=O)CC(C)(O)C(F)(F)F)c1cccc(OCC(F)(F)F)c1` (single isomer, unassigned) [Example 19a], the EC50 turned out to be 1700 nM. Same read-out and setting: under `C[C@H](NC(=O)CC(C)(O)C(F)(F)F)c1cccc(OCC(F)(F)F)c1` (single isomer, unassigned) [Example 19b] stands 3400 nM; under `CC(C)C(O)CC(=O)N[C@@H](C)c1cccc(OC(F)(F)F)c1` (single isomer, unassigned) [Example 20a], 3100 nM.

In the case of `CC(C)C(O)CC(=O)N[C@@H](C)c1cccc(OC(F)(F)F)c1` (single isomer, unassigned) [Example 20b], the EC50 was found to be 14000 nM.

Another experiment concerns the target T1, hKv7.2/hKv7.3. Briefly: Automated whole cell patch-clamp functional test of the HEK-hKv7.2/hKv7.3 cell line. It is filed as cell-based. Conditions: stable HEK-hKv7.2/hKv7.3 cell line. Here is the method: as §1
Turning to `CCOC(=O)Nc1ccc(NCc2ccc(F)cc2)cc1N` [Retigabine, N-(2-amino-4-(4-fluorobenzylamino)-phenyl) carbamic acid ethyl ester], the “effect on Kv7-current” value is “potentiated”. As to `O=C1c2ccccc2C(Cc2ccncc2)(Cc2ccncc2)c2ccccc21` [XE991], the “effect on Kv7-current” value was “sensitive”.

These data come from patent US11434199B2, “Alcohol derivatives as KV7 potassium channel openers” (H. Lundbeck A/S, priority 2018, dated 2022).
